Source: patent US20190151283A1, “NON-STEROIDAL SELECTIVE GLUCOCORTICOID RECEPTOR AGONISTIC MODULATORS (SEGRAMs) AND USES THEREOF” (ASSOCIATION POUR LA RECHERCHE À L'IGBMC (ARI), priority 2017, published 2019)

How the values were obtained:
Type in all cases: in vivo, mouse
[1] = test system: B6 male mice; test: Corticosterone synthesis and adrenal gland after three-month treatment
Procedure: B6 male mice (8-week-old) were daily subjected for three months to either a subcutaneous injection of vehicle (NaCl 0.9%), Dex, CpdX, CpdX(eA), CpdX(eB), CpdX-D3, CpdX-D3(eA) or CpdX-D3(eB) (1 mg/kg body weight, diluted in vehicle).
Following this long-term treatment, blood was collected at 10 a.m. and 6 p.m. by retro-orbital puncture in lithium-heparin coated vials, and the plasmatic level of corticosterone was determined. Adrenal glands were harvested and weighted. RNA transcripts were extracted and transcripts of the Cyp11a, Cyp11b1, Cyp11b2 and HSD3β genes were analyzed by q-RT-PCR. Histological analyses of the adrenal glands were also carried out.

[2] = test system: B6 male mice; test: Blood glucose and intraperitoneal glucose tolerance test after three-month treatment
Procedure: B6 male mice (8-week-old) were daily subjected for three months to a subcutaneous injection of either vehicle (NaCl 0.9%), Dex, CpdX, CpdX(eA), CpdX(eB), CpdX-D3, CpdX-D3(eA) or CpdX-D3(eB) (1 mg/kg body weight, diluted in vehicle). Mice were over-night-fasted. Mouse blood glucose concentration was measured before (T0) and during two hours (T120) after glucose i.p. injection ([…] body weight).

[3] = test system: Balb/C mice; test: Dextran sodium sulfate (DSS)-induced ulcerative colitis
Procedure: To investigate the anti-inflammatory activity of CpdX and CpdX-D3 on a Th17 ulcerative colitis, Balb/C mice were treated with 3% DSS in drinking water for 13 days, with or without an intraperitoneal administration of either Dex, CpdX, CpdX(eA), CpdX(eB), CpdX-D3, CpdX-D3(eA) or CpdX-D3(eB) (1 mg/kg of body weight) on D11, D12 and D13.
At D14, RNA transcripts were extracted from mouse colons. IL-1β, IL-6, IL-17a, IL-17f, TSLP and MMP13 transcripts were analyzed by q-RT-PCR. Colon samples were also harvested for histological analyses (with H&E staining).

[4] = test system: Balb/C mice; test: Skin atrophy after 8-day topical treatment of dorsal skin
Description: To investigate whether, similarly to Dex, a topical administration of CpdX could result in a skin atrophy, Balb/C mice were shaved on the dorsal skin. Ethanol (vehicle), Dex, CpdX or either one of its two enantiomers CpdX(eA) or CpdX(eB), as well as the deuterated form CpdX-D3 or either one of its two enantiomers CpdX-D3(eA) or CpdX-D3(eB), were topically applied onto the dorsal skin for 8 days.
Upon completion of the treatments, RNA transcripts were extracted from dorsal skin samples and the transcripts of Kindlin-1 and REDD1 genes were analyzed by q-RT-PCR. Histological and morphometric analyses of the dorsal skin were also performed.

[5] = test system: B6 male mice; test: Insulin level, insulin tolerance test and liver insulin signalling after three-month treatment; settings: three months; conclusion
Procedure: B6 male mice (8-week-old) were subjected daily for three months to a subcutaneous injection of either vehicle (NaCl 0.9%), Dex, CpdX, CpdX(eA), CpdX(eB), CpdX-D3, CpdX-D3(eA) or CpdX-D3(eB) (1 mg/kg body weight, diluted in vehicle). After three months, the blood was collected at 10 a.m. by retro-orbital puncture in lithium-heparin coated vials, and the plasmatic level of insulin was determined.
For the intraperitoneal insulin tolerance test (IPITT), mice were fasted for 6 hours before test. The blood glucose concentration was measured both before (T0) and during a one-hour period after insulin i.p. injection (0.75 U/kg body weight).
Following this three-month treatment, liver samples were harvested and lysed in the RIPA buffer (20 mM Tris pH 8, 150 mM NaCl, 10% glycerol, 1% NP-40 and 2 mM EDTA). Antibodies from Cell Signaling were used to assess by Western-Blotting the relative level of p-IRS1 (S318), IRS-1, p-AKT (S473) and AKT.

[6] = test system: B6 male mice; test: Bone formation after three-month treatment (micro-CT, WNT16 transcripts); settings: s.c. 1 mg/kg daily, three months
Procedure: B6 male mice (8-week-old) were daily subjected for three months to either a subcutaneous injection of vehicle (NaCl 0.9%), Dex, CpdX, CpdX(eA), CpdX(eB), CpdX-D3, CpdX-D3(eA) or CpdX-D3(eB) (1 mg/kg body weight, diluted in NaCl 0.9%).
From each animal included in the experiments, one femur and the ipsilateral tibia were dissected and preserved in 70% ethanol for further bone microstructure analysis by micro-CT. The FX Quantum micro-CT scanner (Perkin Elmer) was used to perform measurements at the distal femur and midshaft tibia. All scans were performed with an isotropic voxel size of 10 μm, 160 μA tube current and 90 kV tube voltage.
Morphological 3D measurements were performed using the CTAn software (Bruker). Cortical bone parameters, which were measured in the tibia midshaft, included measures of the bone volume fraction as compared to the total volume, cortical thickness, total area, bone area and marrow area. The region of interest was selected from below the distal tibial crest and continued for 20 slices toward the proximal end of the tibia. Trabecular bone parameters were measured in the distal metaphysis of the femurs and included bone volume fraction, trabecular thickness, trabecular number and trabecular spacing. The region of interest was selected from below the distal growth plate where the epiphyseal cap structure completely disappeared and continued for 100 slices toward the proximal end of the femur.
The statistical significance as compared to vehicle treatment was calculated through one-way ANOVA test followed by Dunn's multiple comparison test, *p<0.05; **p<0.01; ***p<0.001; ****p<0.0001.

[7] = i.p. 1 mg/kg on D11, D12, D13, H&E histology

plasmatic corticosterone level ([1]; at 10 a.m., compared to control mice (Vehicle)): much higher
cortex layers, most notably the fasciculata zone, of the adrenal glands ([1]; three months, histology): markedly increased
glomerulosa zone of the adrenal cortex ([1]; three months, histology, 'but not' = not decreased): but not
transcripts of Cyp11a, Cyp11b1 and HSD3β genes in adrenal glands ([1]; three months, q-RT-PCR): increased
epidermal thickness ([4]; eight-day topical treatment, morphometric analysis): not significantly decreased
transcription of the REDD1 gene in dorsal skin ([4]; topical 8 days, 1 nmole/cm^2, 'but not' = not increased): but not
bone formation in cortical and trabecular bones [6]: did not affect
Compound: [2H]C([2H])([2H])Oc1ccc(F)cc1C(C)(C)CC(O)(CNc1ccc2c(c1)COC2=O)C(F)(F)F (stereo not shown) [CpdX-D3(eB), 5-{4-[2-(methoxy-D3)-5-fluorophenyl]-2-hydroxy-4-methyl-2-(trifluoromethyl)pentylamino}isobenzofuran-1(3H)-one]
control of the blood glucose level ([2]; three months, conclusion): does not significantly affect
blood glucose level in intraperitoneal glucose tolerance test (IPGTT) ([2]; two-hour period after glucose i.p. injection (2 mg/kg body weight)): no significant difference
pro-inflammatory genes overexpressed in DSS-induced ulcerative colitis (IL-1β, IL-6, IL-17a, IL-17f, TSLP, MMP13) ([3]; colon, q-RT-PCR, D14): similarly repressed
colonic villus/crypt structure [3, 7]: almost reestablished
mucosal and submucosal cell infiltration [3, 7]: significantly decreased
insulin resistance [5]: does not induce
